Columns and labels:
[1] = tested on: ENR+CD organoids (ISC to Paneth cell differentiation); experiment: Primary screen: basal (non-stimulated) lysozyme secretion LYZ.NS, 2.5-D 384-well ENR+CD organoid differentiation; assay type: cell-based, mouse; details: primary screen; for Z.LYZ.NS: standard z score
Text: (§1) High-throughput screening.

ENR+CD organoids = experiment: Primary screen: ATP (CellTiter-Glo 3D, CTG) cell number/viability, 2.5-D 384-well ENR+CD organoids; details: primary screen; for Z.CTG: standard z score;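 as to all read-outs here: compounds given at plating and again on day 3 over a 6-day differentiation from ENR+CV stem-cell-enriched precursors, ATP measured on day 6, plate median as control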
[2] = tested on: ENR+CD organoids (ISC to Paneth cell differentiation); experiment: Primary screen: CCh-stimulated lysozyme secretion LYZ.S, 2.5-D 384-well ENR+CD organoid differentiation; assay type: cell-based, mouse; details: primary screen
Text: as §1

[3] = dose 0.08 uM, FC vs plate median
[4] = dose 0.40 uM, FC vs plate median
[5] = dose 2.00 uM, FC vs plate median
[6] = dose 10.00 uM, FC vs plate median

| Compound | Dose.FC.LYZ.NS ([1]; dose 0.08 uM) [log2 fold change] | Z.LYZ.NS (standard z score) ([1]; dose 0.08 uM) | Dose.FC.LYZ.NS ([1]; dose 0.40 uM) [log2 fold change] | Z.LYZ.NS (standard z score) ([1]; dose 0.40 uM) | Dose.FC.LYZ.NS ([1]; dose 2.00 uM) [log2 fold change] | Z.LYZ.NS (standard z score) ([1]; dose 2.00 uM) | Dose.FC.LYZ.NS ([1]; dose 10.00 uM) [log2 fold change] | Z.LYZ.NS (standard z score) ([1]; dose 10.00 uM) | Dose.FC.CTG (ENR+CD organoids; dose 0.08 uM) [log2 fold change] | Dose.FC.CTG (ENR+CD organoids; dose 0.40 uM) [log2 fold change] | Dose.FC.CTG (ENR+CD organoids; dose 2.00 uM) [log2 fold change] | Dose.FC.CTG (ENR+CD organoids; dose 10.00 uM) [log2 fold change] | Dose.FC.LYZ.S ([2]; dose 0.08 uM) [log2 fold change] | Dose.FC.LYZ.S ([2]; dose 0.40 uM) [log2 fold change] | Dose.FC.LYZ.S ([2]; dose 2.00 uM) [log2 fold change] | Dose.FC.LYZ.S ([2]; dose 10.00 uM) [log2 fold change] | Dose.FC.LYZ.NS (log2 fold change) ([1]; dose 0.08 uM) | Dose.FC.LYZ.NS (log2 fold change) ([1]; dose 0.40 uM) | Dose.FC.LYZ.NS (log2 fold change) ([1]; dose 2.00 uM) | Dose.FC.LYZ.NS (log2 fold change) ([1]; dose 10.00 uM) | other results |
| --- | --- | --- | --- | --- | --- | --- | --- | --- | --- | --- | --- | --- | --- | --- | --- | --- | --- | --- | --- | --- | --- |
| OG-L002 | – | – | – | – | – | – | – | – | – | – | – | – | – | – | – | – | – | – | – | – | Z.LYZ.NS ([1]; dose 0.08 uM): −0.001; Z.LYZ.NS ([1]; dose 0.40 uM): −0.097; Z.LYZ.NS ([1]; dose 2.00 uM): 0.182; Z.LYZ.NS ([1]; dose 10.00 uM): −0.790; Dose.FC.LYZ.NS [1, 3]: 0.000 log2 fold change; Dose.FC.LYZ.NS [1, 4]: −0.011 log2 fold change; Dose.FC.LYZ.NS [1, 5]: 0.021 log2 fold change; Dose.FC.LYZ.NS [1, 6]: −0.091 log2 fold change; Z.CTG (ENR+CD organoids; dose 0.08 uM): 0.225; Z.CTG (ENR+CD organoids; dose 0.40 uM): 0.329; Z.CTG (ENR+CD organoids; dose 2.00 uM): 0.306; Z.CTG (ENR+CD organoids; dose 10.00 uM): 0.225; Dose.FC.CTG (ENR+CD organoids; [3]): 0.094 log2 fold change; Dose.FC.CTG (ENR+CD organoids; [4]): 0.138 log2 fold change; Dose.FC.CTG (ENR+CD organoids; [5]): 0.128 log2 fold change; Dose.FC.CTG (ENR+CD organoids; [6]): 0.094 log2 fold change; Dose.FC.LYZ.S [2, 3]: 0.023 log2 fold change; Dose.FC.LYZ.S [2, 4]: 0.026 log2 fold change; Dose.FC.LYZ.S [2, 5]: −0.001 log2 fold change; Dose.FC.LYZ.S [2, 6]: −0.084 log2 fold change |
| COc1ccc(C(=O)N2CCCC2=O)cc1 [Aniracetam] | 0.089 | 0.774 | 0.056 | 0.486 | 0.032 | 0.277 | 0.012 | 0.105 | −0.088 | 0.112 | 0.054 | 0.019 | 0.043 | 0.148 | 0.005 | −0.028 | – | – | – | – | – |
| Nc1nc(OCc2cc(Br)cs2)c2[nH]cnc2n1 [Lomeguatrib] | – | −0.437 | – | −0.161 | – | −0.193 | – | −0.908 | – | – | – | – | – | – | – | – | −0.050 | −0.019 | −0.022 | −0.104 | Dose.FC.CTG (log2 fold change) (ENR+CD organoids; dose 0.08 uM): −0.426; Dose.FC.CTG (log2 fold change) (ENR+CD organoids; dose 0.40 uM): −0.309; Dose.FC.CTG (log2 fold change) (ENR+CD organoids; dose 2.00 uM): 0.075; Dose.FC.CTG (log2 fold change) (ENR+CD organoids; dose 10.00 uM): −0.080; Dose.FC.LYZ.S (log2 fold change) ([2]; dose 0.08 uM): −0.082; Dose.FC.LYZ.S (log2 fold change) ([2]; dose 0.40 uM): −0.022; Dose.FC.LYZ.S (log2 fold change) ([2]; dose 2.00 uM): −0.055; Dose.FC.LYZ.S (log2 fold change) ([2]; dose 10.00 uM): −0.138 |
| O=c1ncn2nc(Sc3ccc(F)cc3F)ccc2c1-c1c(Cl)cccc1Cl [VX-745] | 0.092 | 0.805 | 0.004 | 0.031 | 0.021 | 0.186 | −0.006 | −0.049 | 0.186 | 0.146 | 0.018 | 0.022 | 0.154 | 0.054 | 0.058 | 0.038 | – | – | – | – | – |
| Cc1ccccc1C(=O)Nc1ccc(C(=O)N2CCCC(O)c3cc(Cl)ccc32)c(C)c1 (stereo not shown) [Tolvaptan] | 0.049 | 0.429 | −0.041 | −0.355 | −0.023 | −0.204 | −0.093 | −0.807 | 0.095 | −0.008 | −0.094 | −0.104 | 0.086 | 0.031 | −0.048 | −0.150 | – | – | – | – | – |
| O=C(C[S+]([O-])Cc1ccco1)NC/C=C\COc1cc(CN2CCCCC2)ccn1 (stereo not shown) [Lafutidine] | – | 0.372 | – | 0.059 | – | 0.320 | – | 0.657 | – | – | – | – | – | – | – | – | 0.043 | 0.007 | 0.037 | 0.075 | Dose.FC.CTG (log2 fold change) (ENR+CD organoids; dose 0.08 uM): 0.152; Dose.FC.CTG (log2 fold change) (ENR+CD organoids; dose 0.40 uM): 0.145; Dose.FC.CTG (log2 fold change) (ENR+CD organoids; dose 2.00 uM): 0.138; Dose.FC.CTG (log2 fold change) (ENR+CD organoids; dose 10.00 uM): −0.098; Dose.FC.LYZ.S (log2 fold change) ([2]; dose 0.08 uM): 0.052; Dose.FC.LYZ.S (log2 fold change) ([2]; dose 0.40 uM): 0.078; Dose.FC.LYZ.S (log2 fold change) ([2]; dose 2.00 uM): 0.076; Dose.FC.LYZ.S (log2 fold change) ([2]; dose 10.00 uM): −0.014 |

From patent US20220323406A1, “METHODS AND COMPOSITIONS FOR DIFFERENTIATING STEM CELLS” (Massachusetts Institute of Technology, priority 2019, published 2022)
